# Where two headings read alike, the source gives them in different places.
# Tests used:
# [1] = tested on: bloodstream form T. brucei; assay: Growth inhibition of wild type / control bloodstream form T. brucei (resazurin); format: cell-based; details: for EC50: Trypanosoma brucei
# T. cruzi epimastigotes = assay: Growth inhibition of T. cruzi epimastigotes (resazurin); format: cell-based; details: for EC50: read-out: T. cruzi EC50
# L. major promastigotes = assay: Growth inhibition of L. major promastigotes (resazurin); format: cell-based; details: for EC50: Leishmania major, 144 h, read-out: L. major EC50
# [2] = tested on: mouse peritoneal macrophages; assay: Toxicity to mouse peritoneal macrophages (cell counts, Giemsa); format: cell-based, BALB/c mice; details: Peritoneal macrophage, 120 h, read-out: EC50 towards mouse peritoneal macrophages
# [3] = tested on: T. brucei Tbsnm1 null mutants (ΔTbsnm1); assay: microbe, parasite or virus in culture; format: cell-based; details: for EC50: Trypanosoma brucei, read-out: EC50 ΔTbsnm1
# [4] = tested on: T. brucei over expressing TbNTR (Tbntr++); assay: microbe, parasite or virus in culture; format: cell-based; details: for EC50: Trypanosoma brucei, read-out: EC50 Tbntr++
# [5] = tested on: differentiated THP‐1 cells; assay: Mammalian inhibition assay, differentiated THP-1 cells; format: cell-based; details: Homo sapiens, read-out: THP‐1 EC50
# RH1^RC1 T. brucei = assay: microbe, parasite or virus in culture; format: cell-based; details: for EC50: Trypanosoma brucei, read-out: EC50 RH1^RC1;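 on ratio (fold difference in EC50 between RH1^RC1 and wild type): resistant clone selected by stepwise exposure to the aziridinyl benzoquinone prodrug in culture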
# [6] = tested on: T. brucei over expressing TbCPR2 (Tbcpr2++); assay: microbe, parasite or virus in culture; format: cell-based; details: for EC50: Trypanosoma brucei, read-out: EC50 Tbcpr2++
# Wild type T. brucei = format: cell-based
# [7] = Table 3, BSF T. brucei wild type, read-out: EC50 Wild type
# [8] = 72 h, bloodstream form, 3 days, Table 1, activity of some compounds previously reported (Hall et al., 2012), read-out: T. brucei EC50
# [9] = Trypanosoma cruzi, 336 h, epimastigotes, 14 days
# [10] = Selectivity Index: fold difference in EC50 of THP‐1 line relative to parasite
# [11] = Table 2, parasites expressing wild type levels, read-out: EC50 Control
# [12] = Table 4, wild type T. brucei, read-out: EC50 Control
# [13] = 72 h, differentiated THP‐1 cells, 3 days
molecule,measurement,setting,value
O=C1C(F)=C(N2CC2)C(=O)C(N2CCOCC2)=C1N1CC1 [ABQ14],EC50,"[1]; 72 h, read-out: T. brucei EC50",> 10000 nM
same,EC50,"T. cruzi epimastigotes; Trypanosoma cruzi, 336 h",445 ± 30 nM
same,EC50,L. major promastigotes,2270 ± 17 nM
O=C1C=C(N2CC2)C(=O)C=C1N1CC1 [DZQ],T. brucei SI,[1],1
same,EC50,"[1]; 72 h, read-out: T. brucei EC50",272 ± 1 nM
same,T. cruzi SI,T. cruzi epimastigotes,36
same,EC50,"T. cruzi epimastigotes; Trypanosoma cruzi, 336 h",< 10 nM
same,EC50,T. cruzi epimastigotes,5 ± 1 nM
same,EC50,[2],255 nM
same,L. major EC50,L. major promastigotes,high potency
same,L. major SI,L. major promastigotes,3
same,EC50,L. major promastigotes,60 ± 1 nM
same,Ratio of EC50 values ΔTbsnm1 / control,[3],0.27
same,EC50,[3],43 ± 2 nM
same,Fold difference in EC50 Tbntr++ relative to control,[4],90 ± 3 (0.28 )
same,EC50,[4],90 nM
same,EC50,"[5]; THP-1, 72 h",181 ± 5 nM
O=NN(CCCl)C(=O)NC1CCCCC1 [Lomustine],EC50,[1]; [7],16600 ± 443 nM
same,ratio (fold difference in EC50 between RH1^RC1 and wild type),RH1^RC1 T. brucei,0.9
same,EC50,RH1^RC1 T. brucei,15500 ± 665 nM
CC1CCC(NC(=O)N(CCCl)N=O)CC1 (stereo not drawn) [Semustine],EC50,[1]; read-out: EC50 Wild type,15000 ± 3460 nM
same,ratio (fold difference in EC50 between RH1^RC1 and wild type),RH1^RC1 T. brucei,1.1
same,EC50,RH1^RC1 T. brucei,17100 ± 3620 nM
CC1(C)CN1C1=C(Br)C(=O)C(N2CC2(C)C)=C(Br)C1=O [ABQ26],EC50,"[1]; 72 h, read-out: T. brucei EC50",> 10000 nM
same,EC50,"T. cruzi epimastigotes; Trypanosoma cruzi, 336 h",8640 ± 736 nM
same,EC50,L. major promastigotes,2360 ± 230 nM
CC1CN1C1=C(Br)C(=O)C(N2CC2C)=C(Br)C1=O (stereo not drawn) [ABQ25],EC50,[1]; [8],> 10000 nM
same,EC50,"L. major promastigotes; promastigotes, 6 days",80 ± 6 nM
same,L. major EC50,"L. major promastigotes; promastigotes, 6 days",high potency
"S=P(N1CC1)(N1CC1)N1CC1 [ThioTEPA, reference compound]",EC50,[1]; read-out: EC50 Wild type,39400 ± 796 nM
same,EC50,RH1^RC1 T. brucei,56300 ± 1960 nM
CCC(=O)NC1=C(N2CC2C)C(=O)C(NC(=O)CC)=C(N2CC2C)C1=O (stereo not drawn) [ABQ33],EC50,"[1]; 72 h, read-out: T. brucei EC50",> 10000 nM
same,EC50,"T. cruzi epimastigotes; Trypanosoma cruzi, 336 h",> 10000 nM
same,EC50,L. major promastigotes,8157 ± 80 nM
O=C1C(Br)=C(N2CC2)C(=O)C(Br)=C1N1CC1 [ABQ3],EC50,[1]; [8],400 ± 30 nM
same,EC50,T. cruzi epimastigotes; [9],6200 ± 1160 nM
same,EC50,"L. major promastigotes; promastigotes, 6 days",199 ± 4 nM
O=C1C(F)=C(N2CC2)C(=O)C(F)=C1N1CC1 [ABQ4],EC50,[1]; [8],1180 ± 160 nM
same,EC50,T. cruzi epimastigotes; [9],106 ± 25 nM
same,EC50,"L. major promastigotes; promastigotes, 6 days",663 ± 6 nM
CC1CN1C1=C(F)C(=O)C(N2CC2C)=C(F)C1=O (stereo not drawn) [ABQ29],EC50,T. cruzi epimastigotes; [9],975 ± 25 nM
same,EC50,"L. major promastigotes; promastigotes, 6 days",175 ± 5 nM
N[C@@H](Cc1ccc(N(CCCl)CCCl)cc1)C(=O)O [Melphalan],EC50,[1]; read-out: EC50 Wild type,8740 ± 200 nM
same,ratio (fold difference in EC50 between RH1^RC1 and wild type),RH1^RC1 T. brucei,1.2
same,EC50,RH1^RC1 T. brucei,10400 ± 230 nM
O=C(Cn1ccnc1[N+](=O)[O-])NCc1ccccc1 [benznidazole],Susceptibility of RH1 selected (RH1^RC) lines relative to wild type,RH1^RC1 T. brucei,cross‐resistance
CCOC(=O)NC1=C(N2CC2)C(=O)C(NC(=O)OCC)=C(N2CC2)C1=O [AZQ],EC50,"[1]; 72 h, read-out: T. brucei EC50",8230 ± 272 nM
same,EC50,"T. cruzi epimastigotes; Trypanosoma cruzi, 336 h",6000 ± 283 nM
same,EC50,L. major promastigotes,> 10000 nM
CC(=O)NC1=C(N2CC2)C(=O)C(NC(C)=O)=C(N2CC2)C1=O [ABQ15],EC50,"[1]; 72 h, read-out: T. brucei EC50",> 10000 nM
same,EC50,"T. cruzi epimastigotes; Trypanosoma cruzi, 336 h",3310 ± 200 nM
same,EC50,L. major promastigotes,> 10000 nM
C[C@H]1CN1C1=CC(=O)C(N2C[C@@H]2C)=CC1=O [ABQ24],T. brucei SI,[1]; [10],<1
same,EC50,[1]; [8],1470 ± 120 nM
same,EC50,[1]; [11],1470 ± 120 nM
same,EC50,[1]; [12],1470 ± 120 nM
same,T. cruzi SI,T. cruzi epimastigotes,<11
same,EC50,T. cruzi epimastigotes; [9],37 ± 1 nM
same,L. major SI,L. major promastigotes,<1
same,EC50,"L. major promastigotes; promastigotes, 6 days",473 ± 123 nM
same,Ratio of EC50 values ΔTbsnm1 / control,[3],0.77
same,Susceptibility of Tbsnm1 null mutants relative to wild type / control (fold more susceptible),[3],no significant difference
same,EC50,[3],1130 ± 100 nM
same,Fold difference in EC50 Tbntr++ relative to control,[4],2090 ± 160 (1.42)
same,EC50,[4],2090 nM
same,EC50,[5]; [13],< 400 nM
same,Fold difference in EC50 Tbcpr2++ relative to control,[6],1698 ± 23 (1.16)
same,EC50,[6],1700 nM
COC1=C(N2CC2)C(=O)C(OC)=C(N2CC2)C1=O [ABQ6],EC50,[1]; [8],283 ± 41 nM
same,T. cruzi SI,T. cruzi epimastigotes,5
same,EC50,T. cruzi epimastigotes; [9],205 ± 53 nM
same,EC50,"L. major promastigotes; promastigotes, 6 days",664 ± 2 nM
same,EC50,[5]; [13],1070 ± 159 nM
"NC(=O)c1cc(N2CC2)c([N+](=O)[O-])cc1[N+](=O)[O-] [CB1954, reference compound]",EC50,[1]; read-out: EC50 Wild type,2160 ± 125 nM
same,EC50,RH1^RC1 T. brucei,13100 ± 972 nM
CCCOC1=C(N2CC2)C(=O)C(OCCC)=C(N2CC2)C1=O [ABQ8],T. brucei SI,[1],4
same,EC50,"[1]; 72 h, read-out: T. brucei EC50",670 ± 30 nM
same,T. cruzi SI,T. cruzi epimastigotes,2
same,EC50,"T. cruzi epimastigotes; Trypanosoma cruzi, 336 h",1300 ± 108 nM
same,L. major SI,L. major promastigotes,2
same,EC50,L. major promastigotes,1870 ± 184 nM
same,EC50,"[5]; THP-1, 72 h",2950 ± 770 nM
phleomycin [reference compound],Cells in G1/S phase (1N1K),Wild type T. brucei,approximately 80%
"NCCCC(N)(C(=O)O)C(F)F (stereo not drawn) [DFMO, difluoromethylornithine, reference compound]",EC50,[1]; [7],16800 ± 2690 nM
same,EC50,[1]; read-out: EC50 Control,27500 ± 108 nM
same,Ratio of EC50 values ΔTbsnm1 / control,[3],0.99
same,Susceptibility of Tbsnm1 null mutants relative to wild type / control (fold more susceptible),[3],no significant difference
same,EC50,[3],27100 ± 850 nM
same,Fold difference in EC50 Tbntr++ relative to control,[4],30720 ± 1330 (1.12)
same,EC50,[4],30700 nM
same,Fold difference in EC50 Tbcpr2++ relative to control,[6],33250 ± 5123 (1.21)
same,EC50,[6],33200 nM
same,ratio (fold difference in EC50 between RH1^RC1 and wild type),RH1^RC1 T. brucei,1.3
same,EC50,RH1^RC1 T. brucei,22200 ± 383 nM
C[C@@H]1CN1C1=CC(=O)C(N2C[C@H]2C)=CC1=O [ABQ23],T. brucei SI,[1]; [10],<1
same,EC50,[1]; [8],2300 ± 60 nM
same,EC50,[1]; [11],2940 ± 420 nM
same,EC50,[1]; [12],2300 ± 60 nM
same,T. cruzi SI,T. cruzi epimastigotes,<1
same,EC50,T. cruzi epimastigotes; [9],2180 ± 670 nM
same,EC50,"L. major promastigotes; promastigotes, 6 days",348 ± 166 nM
same,Ratio of EC50 values ΔTbsnm1 / control,[3],1.01
same,Susceptibility of Tbsnm1 null mutants relative to wild type / control (fold more susceptible),[3],no significant difference
same,EC50,[3],2410 ± 160 nM
same,Fold difference in EC50 Tbntr++ relative to control,[4],3315 ± 540 (1.13)
same,EC50,[4],3320 nM
same,EC50,[5]; [13],< 400 nM
same,Fold difference in EC50 Tbcpr2++ relative to control,[6],3556 ± 96 (1.21)
same,EC50,[6],3560 nM
CC1CN1C1=C(Cl)C(=O)C(N2CC2C)=C(Cl)C1=O (stereo not drawn) [ABQ27],EC50,[1]; [8],> 10000 nM
same,EC50,T. cruzi epimastigotes; [9],620 ± 180 nM
same,EC50,"L. major promastigotes; promastigotes, 6 days",210 ± 10 nM
CC1(C)CN1C1=C(F)C(=O)C(N2CC2(C)C)=C(F)C1=O [ABQ30],T. brucei SI,[1],<1
same,EC50,"[1]; 72 h, read-out: T. brucei EC50",7400 ± 190 nM
same,EC50,[1]; read-out: EC50 Control,7400 ± 190 nM
same,T. cruzi SI,T. cruzi epimastigotes,4
same,EC50,"T. cruzi epimastigotes; Trypanosoma cruzi, 336 h",980 ± 25 nM
same,L. major SI,L. major promastigotes,22
same,EC50,L. major promastigotes,174 ± 10 nM
same,Fold difference in EC50 Tbntr++ relative to control,[4],8670 ± 1670 (1.12)
same,EC50,[4],8670 nM
same,EC50,"[5]; THP-1, 72 h",3750 ± 320 nM
C1CN1c1nc(N2CC2)nc(N2CC2)n1 [Triethylenemelamine],EC50,[1]; read-out: EC50 Wild type,2400 ± 86 nM
same,ratio (fold difference in EC50 between RH1^RC1 and wild type),RH1^RC1 T. brucei,1.1
same,EC50,RH1^RC1 T. brucei,2770 ± 64 nM
CC1=C(N2CC2)C(=O)C(C)=C(N2CC2)C1=O [MeDZQ],T. brucei SI,[1],1
same,EC50,"[1]; 72 h, read-out: T. brucei EC50",698 ± 57 nM
same,EC50,[1]; read-out: EC50 Control,740 ± 18 nM
same,T. cruzi SI,T. cruzi epimastigotes,16
same,EC50,"T. cruzi epimastigotes; Trypanosoma cruzi, 336 h",55 ± 2 nM
same,L. major SI,L. major promastigotes,2
same,EC50,L. major promastigotes,560 ± 139 nM
same,Fold difference in EC50 Tbntr++ relative to control,[4],115 ± 3 (0.16 )
same,EC50,[4],115 nM
same,EC50,"[5]; THP-1, 72 h",885 ± 23 nM
CC(C)NC1=C(N2CC2)C(=O)C(NC(C)C)=C(N2CC2)C1=O [ABQ13],EC50,"[1]; 72 h, read-out: T. brucei EC50",> 10000 nM
same,EC50,"T. cruzi epimastigotes; Trypanosoma cruzi, 336 h",5550 ± 240 nM
same,EC50,L. major promastigotes,> 10000 nM

# From PMC5656836, “Distinct activation mechanisms trigger the trypanocidal activity of DNA damaging prodrugs” (Molecular Microbiology, 2017)
